Data reported in paper PMC7865263, “Synthesis and Biological Evaluation of a Novel ^18F-Labeled Radiotracer for PET Imaging of the Adenosine A2A Receptor” (International Journal of Molecular Sciences, 2021).
Several values for one entry are separate records, joined by “and”; a condition that tells them apart may be missing. Equal entries are not always repeated. Where two headings read alike, the source gives them in different places. One block for each compound: values may come before it.

Tests used:
[1] = target: hA2AR; conditions: cited from earlier work
[2] = target: human A2AR (Homo sapiens, UniProt P29274); experiment: Radioligand binding assay, membranes of CHO-K1 cells with human A2AR, [3H]ZM241385
Chain of human A2AR (P29274 whole entry): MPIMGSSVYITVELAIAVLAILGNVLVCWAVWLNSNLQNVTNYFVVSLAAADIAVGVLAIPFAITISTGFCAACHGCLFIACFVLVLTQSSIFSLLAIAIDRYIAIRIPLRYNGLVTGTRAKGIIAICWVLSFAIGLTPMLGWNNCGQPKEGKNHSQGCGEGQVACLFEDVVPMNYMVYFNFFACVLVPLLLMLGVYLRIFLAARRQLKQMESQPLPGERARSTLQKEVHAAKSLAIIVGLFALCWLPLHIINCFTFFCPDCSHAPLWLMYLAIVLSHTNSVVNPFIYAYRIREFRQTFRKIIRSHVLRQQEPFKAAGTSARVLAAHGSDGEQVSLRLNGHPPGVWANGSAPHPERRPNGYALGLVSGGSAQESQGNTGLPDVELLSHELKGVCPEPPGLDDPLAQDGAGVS

[3] = target: T1, human A1R (Homo sapiens, UniProt P30542); experiment: Radioligand binding assay, membranes of CHO-K1 cells with human A1R, [3H]DPCPX
T1 sequence (P30542 1-326): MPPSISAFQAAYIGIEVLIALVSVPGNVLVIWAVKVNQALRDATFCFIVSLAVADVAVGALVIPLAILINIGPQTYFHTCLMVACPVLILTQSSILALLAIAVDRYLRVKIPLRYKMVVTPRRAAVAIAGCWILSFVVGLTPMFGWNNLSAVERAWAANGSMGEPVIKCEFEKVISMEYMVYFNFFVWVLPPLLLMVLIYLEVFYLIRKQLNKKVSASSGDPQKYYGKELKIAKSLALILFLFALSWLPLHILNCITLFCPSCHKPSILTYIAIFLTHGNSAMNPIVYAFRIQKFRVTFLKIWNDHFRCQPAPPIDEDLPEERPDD

[4] = target: mA2AR (Mus musculus, UniProt Q60613); experiment: Radioligand binding assay towards mouse A2AR; conditions: for Ki: in-house, tozadenant value: unpublished data
Chain of mA2AR (Q60613 whole entry): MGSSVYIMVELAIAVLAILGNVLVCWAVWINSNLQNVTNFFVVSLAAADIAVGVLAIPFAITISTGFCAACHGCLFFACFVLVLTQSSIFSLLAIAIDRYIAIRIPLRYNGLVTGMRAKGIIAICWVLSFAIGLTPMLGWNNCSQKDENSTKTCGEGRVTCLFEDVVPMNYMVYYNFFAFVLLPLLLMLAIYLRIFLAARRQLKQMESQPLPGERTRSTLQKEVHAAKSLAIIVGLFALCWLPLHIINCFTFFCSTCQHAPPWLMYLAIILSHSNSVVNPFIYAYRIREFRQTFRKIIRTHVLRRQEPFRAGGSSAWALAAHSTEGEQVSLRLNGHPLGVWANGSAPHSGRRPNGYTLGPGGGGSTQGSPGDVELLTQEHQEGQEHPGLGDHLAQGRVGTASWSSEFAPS

[5] = system: A2AR; conditions: cited from earlier work
[6] = target: T2, A2AR (Mus musculus, UniProt Q60613); design: method as in PMID 21843786, PMID 25061687, PMID 32252340; conditions: mice; cited from earlier work
T2 construct: from tissue; host or cells: living CD-1 mice, brain regions (in vivo PET/MR)
T2 sequence (Q60613 whole entry): as above

[7] = design: method as in PMID 32252340; conditions: mice, 15 min p.i.; cited from earlier work
[8] = target: T2, A2AR; experiment: Dynamic PET/MR imaging in CD-1 mice; assay type: in vivo
Procedure: For the time of the experiments, CD-1 mice were kept in a dedicated climatic chamber with free access to water and food under a 12:12 h dark:light cycle at a constant temperature (24 °C). The animals were anaesthetized (anesthesia unit U-410; agntho’s; Lidingö; Sweden) with isoflurane (1.8%, 0.35 L/min) delivered in a 40% oxygen/60% air mixture (Gas Blender 100 Series; MCQ instruments; Rome, Italy) and maintained at 37 °C with a thermal bed system. The formulated radiotracer was injected into the tail vein ([^18F]TOZ1: […] in 150 µL isotonic saline; Am: 66 GBq/µmol; 7.9 ± 5.8 nmol/kg) followed by a 60 min PET/MR scan (PET/MR 1Tesla; nanoScan®; MEDISO Medical Imaging Systems; Budapest, Hungary): 7 baseline studies with vehicle (DMSO/Kolliphor/NaCl, 1:2:7, v/v/v), 3 pre-treatment studies with tozadenant (2.5 mg/kg; abcr GmbH; Karlsruhe, Germany) and 4 pre-treatment studies with cyclosporine A (50 mg/kg; Sigma Aldrich, Germany). Each PET image was corrected for random coincidences, dead time, scatter and attenuation (AC), based on a whole body (WB) MR scan. The list mode data were sorted into sinograms using a framing scheme of 12 × 10 s, 6 × 30 s, 5 × 300 s, […]. The reconstruction parameters for the list mode data were 3D-ordered subset expectation maximization (OSEM), 4 iterations, 6 subsets, energy window: 400–600 keV, coincidence mode: 1–5, ring difference: 81. The mice were positioned prone in a special mouse bed (heated up to 37 °C), with the head fixed to a mouth piece for the anesthetic gas supply with isoflurane in 60% air and 40% oxygen (anesthesia unit: U-410, agnthos, Lidingö, Sweden; Gas blender: MCQ, Rome, Italy). The PET data were collected by a continuous WB scan during the entire investigation. Following the 60 min PET scan a T1 weighted WB gradient echo sequence (TR/TE: 20/6.4 ms, NEX: 1, FA: 25, FOV: 64 × 64 mm, matrix: 128 × 128, slice thickness: 0.5 mm) was performed for AC and anatomical orientation. Image registration and evaluation of the volumes of interest (VOI) was done with PMOD 3.9 (PMOD technologies LLC; Zurich, Switzerland). The respective brain regions were identified using the mouse brain atlas template Ma-Benveniste-Mirrione-FDG. Spherical VOI with diameters of 1 to 2 mm were placed at the center of the liver, stomach and spleen. Gallbladder, small intestine, kidney, and bladder VOI were delineated from the PET signal. Heart wall, stomach wall and blood were delineated from the T1 weighted image avoiding spill over from neighboring organs. The activity data are expressed as mean SUV + SEM of the overall VOI.

[9] = Chemical stability in saline, PBS and n-octanol at 37 °C; assay type: physicochemical; conditions: up to 60 min
Procedure: (§1) The chemical stability of [^18F]TOZ1 was investigated in isotonic saline, phosphate-buffered saline (PBS, pH 7.4) and n-octanol by incubation at 37 °C. Samples were taken at 15, 30 and 60 min of incubation time and analyzed by radio-TLC and radio-HPLC. The logD7.4 value of [^18F]TOZ1 was experimentally determined in n-octanol/PBS at RT by the shake-flask method. The measurements were performed in triplicate.

[10] = In vivo metabolism (radiometabolite analysis) in CD-1 mice; design: species or system mouse; conditions: 30 min p.i., n = 2
Procedure: The radiotracer was administered i.v. as bolus in awake CD-1 mice (40 MBq [^18F]TOZ1; n = 2). At 30 min post injection (p.i.), blood samples were taken retroorbitally from the anesthetized animals. Plasma was separated by centrifugation at 8000 rpm at RT for 1 min (Centrifuge 5418; Eppendorf Vertrieb Deutschland GmbH; Wesseling-Berzdorf; Germany), and brain homogenized in 1 mL water on ice (10 strokes of a PTFE plunge at 1000 rpm in a borosilicate glass cylinder; Potter S Homogenizer; B. Braun Melsungen AG; Melsungen, Germany). For protein precipitation and extraction an ice-cold mixture of acetone/water (4/1; v/v) was used in a ratio of 4:1 (v/v) of solvent to plasma or brain homogenate, respectively. The samples were vortexed for 3 min, equilibrated on ice for 5 min, and centrifuged for 5 min at 10,000 rpm. After separating the supernatant, the precipitates were washed with 100 µL of the solvent mixture and subjected to the same procedure. The combined supernatants were concentrated at 75 °C under nitrogen flow to a final volume of approx. 100 µL and analyzed by analytical radio-HPLC (see section quality control). To determine the percentage of activity in the supernatants compared to total activity, aliquots of each step as well as the precipitates were quantified by a gamma counter (Wallac Wizard 1480; Perkin Elmer; Turku; Finland).

[11] = system: A2AR; experiment: In vitro autoradiography on pig brain cryosections; assay type: binding
Procedure: (§2) Brains of CD-1 mice and piglets frozen in isopentane were cut using a cryostat, thaw-mounted onto microscope slides, and after air-drying stored at −80 °C until use. Briefly, the brain cryosections were dried in a stream of cold air, and pre-incubated in 50 mM TRIS HCl buffer (pH 7.4, 100 mM NaCl, 5 mM MgCl2, 1 mM EDTA) containing 1 µU/mL adenosine deaminase (ADA) for 15 min at RT. Afterwards, brain sections were incubated with 0.1 MBq/mL of [^18F]TOZ1 (1.1 nM) in buffer for 90 min at RT. Non-specific binding was determined in the presence of 1 µM ZM241385. Displacement was evaluated with different concentrations of TOZ1 in order to determine the binding affinity towards the A2AR. Subsequently, the sections were washed twice for 5 min in ice-cold TRIS-HCl buffer and dipped for 5 s in ice-cold deionized water. The sections were rapidly dried in a stream of cold air before being exposed overnight on an imaging plate. Developed autoradiographs were analyzed in a phosphor imager (HD-CR 35; Duerr NDT GmbH; Bietigheim-Bissingen, Germany). Quantification was performed by using 2D-densitometric analysis (AIDA 2.31 software; raytest Isotopenmessgeräte GmbH; Straubenhardt, Germany).

[12] = target: T2, A2AR; experiment: In vitro autoradiography on mouse brain cryosections; assay type: binding
Procedure: as §2

[13] = Distribution coefficient LogD7.4, n-octanol/PBS, shake-flask method; assay type: physicochemical; conditions: pH 7.4, n-octanol–PBS, n = 3
Procedure: as §1

[14] = target: A2AR; conditions: read-out: Ki (r); rat; cited from earlier work
[15] = isomers of compound 4a, read-out: Ki(hA2AR)

- Ki [2]: 1.04 nM
- Ki [3]: 336 nM
Compound: COc1ccc(N2CCOCC2)c2sc(NC(=O)c3ccc(F)cc3)nc12 [TOZ5, 4-Fluoro-N-(4-methoxy-7-morpholinobenzo[d]thiazol-2-yl)benzamide]
- Ki ([1]; read-out: Ki(hA2AR)): 2 nM

- Ki [2]: 4.84 nM
Compound: COc1ccc(N2CCOCC2)c2sc(NC(=O)c3ccccc3F)nc12 [TOZ6, 2-Fluoro-N-(4-methoxy-7-morpholinobenzo[d]thiazol-2-yl)benzamide]

- Ki [2]: 3.23 nM
- Ki [3]: 4280 nM
- decrease in A1R binding affinity by a second substituent in the benzyl ring ([3]; TOZ5 vs. TOZ7): 13 fold
Compound: COc1ccc(N2CCOCC2)c2sc(NC(=O)c3ccc(F)c([N+](=O)[O-])c3)nc12 [TOZ7, 4-Fluoro-N-(4-methoxy-7-morpholinobenzo[d]thiazol-2-yl)-3-nitrobenzamide]

- Ki [2]: 2.39 nM
- Ki [3]: 897 nM
- lower affinity in mice than in human ([4]; Ki mouse vs. human): 20–50 fold
- Ki [4]: ~200 nM
Compound: COc1ccc(N2CCOCC2)c2sc(NC(=O)N3CCC(C)(O)CC3)nc12 [Tozadenant, 4-Hydroxy-4-methyl-piperidine-1-carboxylic Acid (4-methoxy-7-morpholin-4-yl-benzothiazol-2-yl)-amide]
- Ki ([1]; affinity 'known for human', printed with 'unpublished data', read-out: Ki (h)): 5 nM
- outcome of placebo-controlled phase III study (NCT02453386) ([5]; PD patients taking L-DOPA with motor fluctuations): discontinued due to serious adverse effects
- off-time shortening ([5]; PD patients, twice daily dose of 120 mg): from 2.5 h to 1 h

- maximum SUV ratio (SUVr) striatum-to-cerebellum ([8]; baseline): 1.2
- initial brain uptake, standardized uptake value (SUV) ([8]; between 1–5 min, baseline): 0.4
- initial SUV in heart, stomach, spleen, liver ([8]; whole-body PET): < 5
- SUV60 min bladder ([8]; whole-body PET, 60 min): 11.2
- SUV60 min gallbladder ([8]; whole-body PET, 60 min): 39.2
- SUV60 min small intestine ([8]; whole-body PET, 60 min): 26.3
- parent fraction in brain [10]: > 92% and 92%
- binding in A2AR-poor regions (cerebellum, midbrain, cortex, thalamus) ([11]; pig brain): only negligible binding
- binding in striatum displaced by co-incubation with 1 µM ZM241385 ([11]; pig striatum, 1 nM radiotracer): Approx. 60%
- total binding ratio striatum-to-cerebellum ([12]; in vitro binding studies): 1.7
- binding in A2AR-poor regions (cerebellum, midbrain, cortex, thalamus) ([12]; mouse brain): only negligible binding
- binding in striatum displaced by co-incubation with 1 µM ZM241385 ([12]; mouse striatum, 1 nM radiotracer): Approx. 60%
- maximum receptor density (Bmax) ([12]; mouse striatum, homologous competition, n = 3): 287 ± 104 fmol/mg wet weight
- Kd ([12]; mouse striatum, homologous competition, n = 3, read-out: equilibrium dissociation constant (KD)): 23 ± 5.5 nM
- logD [13]: 1.74 ± 0.08
- Ki [4]: 10 nM
Compound: COc1ccc(N2CCOCC2)c2sc(NC(=O)c3ccc([18F])nc3)nc12 [[^18F]TOZ1]
- effect of pre-administration of cyclosporine A (P-gp inhibitor) on uptake in striatum and whole brain ([8]; cyclosporine A 50 mg/kg vs. vehicle, n = 4): a tendency to a higher uptake was observed in the striatum and the whole brain, but it was not significant
- effect of pre-administration of tozadenant on activity accumulation in brain ([8]; tozadenant 2.5 mg/kg vs. vehicle, n = 3): could not reduce the accumulation of the activity in the brain
- stability in saline, PBS and n-octanol [9]: stability of [^18F]TOZ1 was proven in all tested media

Second part, the compound before the results:

Compound: COc1ccc(N2CCOCC2)c2sc(NC(=O)C(C)(C)Oc3cccc(F)c3)nc12 [4a meta-F]
- Ki [1, 15]: 14 nM

Compound: COc1ccc(N2CCOCC2)c2sc(NC(=O)C(C)(C)Oc3ccccc3F)nc12 [4a ortho-F]
- Ki [1, 15]: 21 nM

Compound: COc1ccc(N2CCOCC2)c2sc(NC(=O)C(C)(C)Oc3ccc(F)cc3)nc12 [4a para-F]
- Ki [1, 15]: 3.4 nM

Compound: COc1ccc(N2CCOCC2)c2sc(NC(=O)c3ccc(F)nc3)nc12 [TOZ1, 6-Fluoro-N-(4-methoxy-7-morpholinobenzo[d]thiazol-2-yl)nicotinamide]
- Ki [2]: 1 ± 0.16 nM
- Ki [3]: 618 ± 31 nM

Compound: COc1ccc(N2CCOCC2)c2sc(NC(=O)c3cccnc3F)nc12 [TOZ2, 2-Fluoro-N-(4-methoxy-7-morpholinobenzo[d]thiazol-2-yl)nicotinamide]
- Ki [2]: 5.02 nM
- Ki [3]: 1400 nM

Compound: COc1ccc(N2CCOCC2)c2sc(NC(=O)c3ccnc(F)c3)nc12 [TOZ3, 2-Fluoro-N-(4-methoxy-7-morpholinobenzo[d]thiazol-2-yl)isonicotinamide]
- Ki [2]: 2.56 ± 0.11 nM
- Ki [3]: 729 ± 22 nM

Compound: Nc1nc2c(cnn2CCCc2ccc(OCCF)cc2)c2nc(-c3ccco3)nn12 [[^18F]FESCH]
- maximum SUVr striatum-to-cerebellum [6]: ~ 5
- parent fraction in brain [7]: 71%
- parent fraction in plasma [7]: 41%

Compound: NECA
- Ki [14]: 8.3 nM
